The text below walks through data of patent US11564911B2, “Small molecule dual-inhibitors of TRPV4 and TRPA1 for sanitizing and anesthetizing” (Duke University, priority 2016, dated 2023).

Series [1] concerns the target TRPV4 (Rattus norvegicus, UniProt Q9ERZ8). The experiment in a line: Ca++ imaging in primary astrocytes, GSK101 stimulation. Conditions: 5 nM GSK101. It counts as cell-based. Here is the method:
FIGS. 28A-28B: Compound 16-8 inhibits TRPV4 in I° cells more potently than GSK205. […] Inset: Chondrocytes responding to activation with GSK101, fura-2 Ca++ imaging; right-hand image taken at 5 sec after GSK101 application. […] (FIG. 28B) 1° (primary) astrocytes (rat); dose-response comparison between 16-8 and GSK205 in response to 5 nM GSK101. Inset: Astrocytes responding to activation with GSK101; right-hand image taken at 5 sec after GSK101 application (mean±SEM, n=5 independent expts, 200 cells/expt; *p<0.05, t-test).
Astrocyte cultures were conducted following established protocols^64-66. Astrocytes were prepared from Sprague Dawley rat embryos (E18). Briefly, the isolated cortices were minced, and then incubated with trypsin and DNase. Dissociated cells were suspended in Dulbeccco's Modified Eagle's Medium (DMEM) supplemented with 10% fetal calf serum and penicillin/streptomycin (100 U/ml and 100 μg/ml, respectively). Thereafter, cell sus-pensions were plated in 75 cm^2 tissue culture flasks (10×10^6 cells/flask) which were pre-coated with poly-L-lysine (10 μg/ml). The cells were maintained in a […] incubator at 37° C.

The target in series [2] is T1, TRPV4 (Mus musculus, UniProt Q9EPK8).
T1 construct: endogenous in cells; host or cells: primary mouse epidermal keratinocytes (1° MK)
The experiment in a line: Ca++ transients in primary mouse keratinocytes on chemical activation of TRPV4 (GSK101, 4α-PDD). It counts as cell-based. Conditions: 1° MK, 5 nM GSK101; GSK205 20 μM. Here is the method:
Ca++ imaging of mouse 1° MK in response to chemical activation of TRPV4 was conducted after loading with 2 μM fura2-AM, following a ratiometric Ca2+ imaging protocol with 340/380 nm […] for dual excitation. Ratios of emissions were acquired at 0.5 Hz. ΔR/R0 was determined as the fraction of the increase of a given ratio over baseline ratio, divided by baseline ratio. For stimulation of cells with UVB, where fura-2 was not suitable because of the proximity of stimulation with 340/380 nm and 295 nm, 2 μM fluo4-AM was used instead. Ca++ imaging was carried out at 488 nm excitation, acquisition of emissions at 0.5 Hz, expressed as ΔF/F0. In the custom-built UV optical system, UV LEDs were capped with a ball lens, a transparent optical window in the shape of a hemispherical lens (FIG. 2B). The LED output optical beam focused at 15-20 mm from the lens, with a spot diameter of approximately 1.5-2.0 mm (FIG. 2C). […] The thermal equilibration stage was set for physiological temperature. We confirmed the non-thermal nature of UVB stimulation using the customized 295 nm LED device in a dedicated experiment (FIG. 2D), thus confirming the specific modality of stimulation as UVB.

Series [3] is described as follows: UVB permeation of foot-pad skin. Set-up: species or system mouse. Conditions: topically applied, vs vehicle. The protocol:
The UV LED was powered with 20 mA of current, resulting in 500 μW of optical power in a circular focal spot 1.5 mm in diameter, with 70% of the total flux in a 0.5 mm beam radius. The UV optical power transmitted through the sample was detected by a Hamamatsu S127-66BR UV detector, and the output of the photodetector was measured using a Keithley 236 source measure unit. Next, the foot-pad epidermis of a mouse was measured for UV transmission by placing it on a quartz coverslip and exposure to the UV beam. The vehicle-control group was treated with the alcohol and glycerol solution only. Another control group consisted of a commercially-available SPF100 preparation sunscreen in form of a cream, which was applied similar to the vehicle-control. The data for the GSK205 and sunscreen was normalized to this control data.

Series [4] relates to mouse paw-pad skin, UVB-photodermatitis. The experiment in a line: UVB-exposed paw-pad skin after topical GSK205: histopathology and mediators. Format: in vivo. The protocol: GSK205 topical treatment: A viscous solution of 68% EtOH/5% glycerol plus 1 mM or 5 mM GSK205 (none for control) was applied to hindpaws by rubbing in 20 μL, applied at time-points 1 hour and again 10 min before UV exposure.
Routine procedures were followed as described previously (Chen et al., 2009). Mice were perfused transcardially with 30 mL PBS, followed by 30 mL 4% paraformaldehyde. Tissues, including the L5 DRGs (bilateral), and footpad preparations, were dissected and post-fixed in 4% paraformaldehyde. Tissue blocks were further cryoprotected in 30% sucrose in PBS for 24-48 hours. For mouse TRPV4, keratin-specific antibodies, phospho-ERK, IL-6, IL-1β, CXCL5 and caspase-1, tissue was prepared as frozen blocks and subsequently sectioned on a cryostat. For CD68, CD15 (neutrophil elastase) and CD3, mouse skin was prepared by 2% PFA perfusion. Footpad and DRG sections (both at 6-10 μm) were thaw-mounted, blocked with 5% normal goat serum (NGS; Jackson), then incubated overnight at 4° C. with the following primary antibodies: rabbit anti-TRPV4 (1:300; Abcam), mouse anti-keratin 14 (1:300; Abcam against C-terminal peptide beyond residue 850); rabbit anti-keratin 14 (1:1000; Fuchs-Lab), rabbit anti-phosph-ERK1/2 (1:500; Cell signaling technologies), goat anti-IL-1β (1:800; Abcam), goat anti-IL-6 (1:200; Santa Cruz Biotechnology Inc); rabbit anti-caspase-1 (1:200; Biovision Research Products, CA); goat anti-mouse LIX/CXCL5 (1:200; R&D Systems Inc), anti-CD68, anti-[…], and anti-CD3 (AbDSerotec). Immunodetection was accomplished with appropriate fluorescently-labeled secondary antibodies (AlexaFluor595, AlexaFluor488-conjugated antibodies at 1:600; Invitrogen; for CD15 biotinylated secondary antibody from donkey, 1:400 followed by rhodamine-streptavidine 1:250), or with peroxidase-linked detection reagents (for CD68) for 2 hours at room-temperature. Sections were rinsed, mounted, and cover-slipped with fluoromount (Sigma). Digital micrographs were obtained using a BX61 Olympus upright microscope, also with a Zeiss LSM510 confocal, both equipped with high-res CCD camera, and acquired with constant exposure settings, using ISEE or Zeiss Zen software. Morphometric analysis was conducted using ImageJ freeware (v1.45) with tailored regions-of-interest that spared the nuclear compartment. ImageJ was also used for determination of DRG surface area.

The subject of series [5] is trigeminal formalin-evoked pain behavior. Conditions: dose-dependent, intradermal injection; cited from earlier work.

Sequence of TRPV4 (Rattus norvegicus, UniProt Q9ERZ8) (Q9ERZ8 whole entry): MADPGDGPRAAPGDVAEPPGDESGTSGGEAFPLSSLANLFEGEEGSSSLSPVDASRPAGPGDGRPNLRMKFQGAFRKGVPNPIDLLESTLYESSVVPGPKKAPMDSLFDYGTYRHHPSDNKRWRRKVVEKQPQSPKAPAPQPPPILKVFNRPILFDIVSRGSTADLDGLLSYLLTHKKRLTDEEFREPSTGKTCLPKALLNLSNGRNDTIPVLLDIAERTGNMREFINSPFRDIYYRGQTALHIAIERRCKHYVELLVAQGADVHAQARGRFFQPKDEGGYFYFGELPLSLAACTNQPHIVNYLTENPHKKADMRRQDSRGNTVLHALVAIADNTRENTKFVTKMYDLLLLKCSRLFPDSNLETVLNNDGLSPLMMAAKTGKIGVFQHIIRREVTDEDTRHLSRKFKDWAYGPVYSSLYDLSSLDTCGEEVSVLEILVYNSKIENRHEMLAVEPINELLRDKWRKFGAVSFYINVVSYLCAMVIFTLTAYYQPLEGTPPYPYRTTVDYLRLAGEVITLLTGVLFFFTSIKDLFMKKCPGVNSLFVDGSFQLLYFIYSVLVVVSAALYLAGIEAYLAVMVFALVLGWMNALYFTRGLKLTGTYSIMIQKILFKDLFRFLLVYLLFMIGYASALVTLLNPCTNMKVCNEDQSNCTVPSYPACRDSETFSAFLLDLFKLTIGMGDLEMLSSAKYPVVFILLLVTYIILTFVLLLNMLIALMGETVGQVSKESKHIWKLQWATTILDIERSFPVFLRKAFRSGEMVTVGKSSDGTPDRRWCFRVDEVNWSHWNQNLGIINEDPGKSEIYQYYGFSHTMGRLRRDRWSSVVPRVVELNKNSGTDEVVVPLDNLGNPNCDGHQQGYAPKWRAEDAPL
T1 sequence (Q9EPK8 whole entry): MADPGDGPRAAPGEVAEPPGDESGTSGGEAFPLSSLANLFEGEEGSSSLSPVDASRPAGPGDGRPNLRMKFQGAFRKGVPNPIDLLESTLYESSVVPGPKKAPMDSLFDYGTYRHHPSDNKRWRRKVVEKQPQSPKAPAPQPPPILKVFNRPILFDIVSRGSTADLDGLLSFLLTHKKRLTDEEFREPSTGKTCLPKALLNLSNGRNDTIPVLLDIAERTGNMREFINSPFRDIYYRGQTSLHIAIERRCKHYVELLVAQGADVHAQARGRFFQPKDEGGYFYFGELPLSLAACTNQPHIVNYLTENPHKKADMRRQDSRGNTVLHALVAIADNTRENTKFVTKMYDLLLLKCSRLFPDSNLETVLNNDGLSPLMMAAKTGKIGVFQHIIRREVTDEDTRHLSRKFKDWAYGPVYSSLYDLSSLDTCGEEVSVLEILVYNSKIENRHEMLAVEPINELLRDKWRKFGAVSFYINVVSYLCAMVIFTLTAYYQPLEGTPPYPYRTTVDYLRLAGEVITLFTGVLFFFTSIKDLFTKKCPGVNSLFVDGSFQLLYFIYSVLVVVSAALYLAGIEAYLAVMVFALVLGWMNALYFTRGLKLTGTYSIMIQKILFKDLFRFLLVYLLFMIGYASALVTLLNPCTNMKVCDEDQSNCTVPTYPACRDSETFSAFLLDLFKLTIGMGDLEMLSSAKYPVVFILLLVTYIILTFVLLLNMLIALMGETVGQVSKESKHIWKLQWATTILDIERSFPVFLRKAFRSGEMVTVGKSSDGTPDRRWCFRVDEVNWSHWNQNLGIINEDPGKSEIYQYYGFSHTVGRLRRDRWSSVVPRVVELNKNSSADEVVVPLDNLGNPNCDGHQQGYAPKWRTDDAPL

As to `CN(CCc1ccc(Nc2nc(-c3ccccc3)cs2)cc1)Cc1ccccc1` [Compound 16-8], the “potency versus GSK205, dose-response of peak ΔCa++” value at TRPV4 [1] is listed as “significantly increased potency”.

For the compound `CN(CCc1ccc(Nc2nc(-c3cccnc3)cs2)cc1)Cc1ccccc1` [GSK205], at TRPV4 [2], the “GSK101-evoked Ca++ transient” value is recorded as “completely blocked”. The “UVB permeation of paw-pad skin” value in series [3] is “equal UVB permeation”. Besides, in series [4] (topical 5 mM GSK205), the “CXCL5 upregulation in UVB-exposed footpad” value was “significant blocks”, the “IL-1β upregulation in UVB-exposed mouse skin” value is reported as “failed to upregulate”, the “IL-6 upregulation in UVB-exposed footpad” value is “significant blocks” and the “histopathology of UVB-exposed paw skin” value is on record as “virtual elimination of inflammation”. Further, in series [4] (topical 5 mM GSK205, 2 h and 24 h), the “Edn1 mRNA-expression in UVB-exposed paw-pad skin” value is on record as “unchanged”. For the same compound, the “trigeminal formalin-evoked pain behavior, earlier study” value in series [5] was “effective attenuation”.
